From patent US12673973B2, “Peptide having blood coagulation activity, and use thereof” (CAREGEN CO, LTD., priority 2021, dated 2026)
Peptide text beside a SMILES is read from it.

Key:
red blood cells = experiment: Hemolysis test; format: cell-based, rat; conditions: 1 hour 37° C.
Protocol: Furthermore, it was confirmed whether hemolysis, in which blood cells are destroyed, occurs by treatment with the peptide of the present invention. In a state where the coagulation reaction of the collected rat blood was suppressed in a heparinized vacuum collection tube, it was transferred to an EP tube and centrifuged at 1,500 g for 10 minutes. After removing the supernatant plasma, the precipitated red blood cells were treated with 200 μl of 2.5% and 5% of the peptide of the present invention, respectively. A sample treated with 1% SDS was used as a positive control for hemolysis. Each sample was stored for 1 hour in a 37° C. incubator, and then centrifuged again at 1,500 g for 10 minutes. 200 μl of the supernatant was transferred to a 96-well plate, and the optical density was measured at a wavelength of 540 nm.

rat blood [1] = experiment: Blood coagulation test: clotting time by tube inversion; format: cell-based; conditions: 300 μl heparinized rat blood + 150 μl sample, peptides at 2.5%
Protocol: First, the clotting time of blood according to the treatment of the peptide of the present invention was evaluated. In a state where the coagulation reaction of the collected rat blood was suppressed in a heparinized vacuum collection tube, 300 μl of blood was transferred to an EP tube, and 150 μl of a solution in which the peptide of the present invention was dissolved in purified water was treated thereto. The clotting time was measured by inverting the tube at 10-second intervals and visually evaluating the flowability of the blood. As a control group, the RADA16 peptide sample and Greenplast (Greenplast Q, GC Green Cross) were used to conduct the experiment in the same manner as the peptide of the present invention.

rat blood [2] = experiment: Blood coagulation test: optical density of supernatant; format: cell-based; conditions: heparinized rat blood, CaCl2 added, 37° C. 10 minutes
Protocol: In addition, in order to evaluate the coagulation efficacy of the peptide of the present invention, the peptide of the Preparation Example was treated with rat blood, and its optical density was measured. Specifically, in a state where the coagulation reaction of the collected rat blood was suppressed in a heparinized vacuum collection tube, 300 μl of blood was transferred to a 15 ml conical tube, and 300 μl of the peptide of the present invention solution was added thereto and mixed gently. Then, 30 μl of 0.2 M CaCl2 solution was added thereto and incubated at 37° C. for 10 minutes to accelerate the coagulation reaction. Then, 10 ml of distilled water was carefully added thereto, and 200 μl of the uniformly dispersed supernatant was added to a 96-well plate, and the optical density was measured at a wavelength of 540 nm using a spectrophotometer. Likewise, Greenplast and RADA16 peptide preparations were used as controls.

## CC[C@H](C)[C@H](NC(=O)[C@H](CC(N)=O)NC(=O)CNC(=O)[C@H](C)NC(=O)[C@H](CC(C)C)NC(=O)[C@H](Cc1ccc(O)cc1)NC(=O)[C@H](C)NC(=O)[C@H](CCC(N)=O)NC(=O)[C@H](CO)NC(=O)[C@H](C)NC(=O)[C@@H](N)CO)C(=O)N[C@H](C(=O)O)[C@@H](C)O [Peptide of the present invention, SASQAYLAGNIT] (H-SASQAYLAGNIT-OH)
Red blood cells; 2.5% peptide, 200 μl
  hemolysis (optical density of supernatant at 540 nm): did not induce hemolysis
Red blood cells; 5% peptide, 200 μl
  hemolysis (optical density of supernatant at 540 nm): did not induce hemolysis

## CCCCCCCCCCCCOS(=O)(=O)[O-].[Na+] [SDS]
Red blood cells; 1% SDS positive control
  hemolysis (optical density of supernatant at 540 nm): hemolysis occurred

## RADA16
Rat blood [1]
  Blood Clotting time: <30 s
Rat blood [1]; listed as RADA16 peptide
  Blood Clotting time: less than 30 sec
Rat blood [2]
  optical density (540 nm) of supernatant relative to negative control treated with distilled water: 0.7
